Test results published in patent publication US7223733B2, “Modulation of TRIP-Br function and method of treating proliferative disorders” (National University of Singapore, priority 2004, dated 2007).
Where no end group is shown, it is not given here.

Columns and labels:
[1] = test system: caspase-3 protease activity; test: Caspase assay with Ac-DEVD-AFC in U2OS cells; type: cell-based, human; settings: 50 μM decoy peptides, 48 or 72 h
Experimental: Caspase assay. Both adherent and detached cells in 6-well dishes were harvested by centrifugation at 2000 rpm for 15 min at 4° C. The resulting cell pellets were incubated in 50 μl of chilled lysis buffer (Clontech) on ice for 10 min. Cell lysates were incubated in a reaction mix containing 10 mM HEPES, 2.0 mM EDTA, 10 mM KCl, 1.5 mM MgCl2, 1.0 mM PMSF, aprotinine, pepstatin A and leupeptine (20 μM each), 6.0 mM DTT and Ac-DEVD-AFC (4.0 μg/ml). Reactions were allowed to proceed at room temperature. Fluorescence readings were taken at 15 min intervals for 1 h using a spectrofluorometer (excitation wavelength: 400 nm; emission wavelength: 505 nm).
FIG. 6: Caspase assay. (A) Caspase 3 protease activity in U2OS cells exposed to either Eto (Etoposide) for 24 h or 50 μM decoy peptides for 48 or 72 h, were assayed using the Ac-DEVD-AFC fluorogenic substrate. […] Values represent the average +/− standard deviation of two independent experiments. Control: cells cultured in normal growth medium; Vehicle: cells cultured in the presence of 0.5% DMSO; (B) Western blot analysis of PARP cleavage. U2OS cells were exposed to either Eto (Etoposide) for 24 h or 50 μM decoy peptides for 72 h. Lane 1: Vehicle cells (cultured in the presence of 0.5% DMSO for 24 h); Lane 2: 25 μM Eto; Lane 3: 250 μM Eto; Lane 4: Vehicle (cells cultured in the presence of 0.5% DMSO for 72 h); Lane 5: *SCR; Lane 6: *Br1; Lane 7: *Br2.

[2] = test system: U2OS cells; test: Cell number (Coulter counter) and viability (trypan blue) of U2OS cells; type: cell-based, human; settings: for total cell number over time: 50 μM, 0, 48 and 72 h, Coulter counter; for viable cells, trypan blue manual count: 50 μM, 72 h, compared to vehicle or *SCR
Experimental: Determination of cell number and viability. U2OS cells grown in 6-well dishes for 24 h were exposed to 2 ml of growth medium containing either vehicle (0.5% DMSO) or 50 μM decoy peptides for 48 or 72 h. Following treatment, the cells were washed twice with 1×PBS, harvested by trypsinization and re-suspended in 1 ml 1×PBS. 10 μl of cell suspension was taken from each sample and enumerated either electronically or manually. For electronic total cell counts, 10 μl of cell suspension was diluted in 20 ml of isoton® II buffer (Coulter®) and cell number was estimated using an electronic Coulter® counter. For manual counting of viable cells, 10 μl of cell suspension from each sample was mixed with equal volume of trypan blue stain (Sigma, 0.4% w/v in 1×PBS). The number of viable (unstained) cells was enumerated manually using a hemocytometer. FIG. 4: Time-dependent and dose-dependent anti-proliferative effects of the decoy peptides. (A) Time-dependent anti-proliferative effects of the decoy peptides. U2OS cells, exposed to either vehicle (0.5% DMSO) or 50 μM decoy peptides for either 24 or 48 h, were assayed for BrdU incorporation with a colorimetric ELISA assay. Values represent the average +/− standard deviation of two independent experiments; (B) Dose-dependent anti-proliferative effects of the decoy peptides. U2OS cells, exposed to 5, 10, 20 or 50 μM of *SCR (solid line and square), *Br1 (dashed line and triangle) or *Br2 (dashed line and circle) for 48 h, were assayed for BrdU incorporation with a colorimetric ELISA assay. Values represent the average +/− standard deviation of at least two independent experiments; (C) Cell proliferation analysis. Left panel: At 0, 48 and 72 h post decoy peptide treatment, total cell number was determined electronically using a Coulter® counter. Right panel: At 72 h post-treatment, cells were harvested and stained with trypan blue for viable cell count analysis.

[3] = test system: KRIP-1/TRIP-Br PHD-bromodomain interaction; test: Immunoprecipitation assay of GAL4-KRIP-1/TRIP-Br complex formation (in vitro translated proteins); type: binding; settings: 25 μM decoy peptides pre-incubated with GAL4-KRIP-1
Sequence of KRIP-1/TRIP-Br PHD-bromodomain interaction (Q62318 621-811 limits assumed): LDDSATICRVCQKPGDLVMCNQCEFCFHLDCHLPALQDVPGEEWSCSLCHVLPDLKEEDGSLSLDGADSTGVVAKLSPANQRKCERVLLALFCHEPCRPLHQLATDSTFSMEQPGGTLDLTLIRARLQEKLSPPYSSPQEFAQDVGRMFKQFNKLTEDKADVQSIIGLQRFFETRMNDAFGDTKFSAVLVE
Experimental: Preparation of proteins by in vitro translation. In vitro translation (IVT) products were synthesized from pcDNA3/TRIP-Br1, pcDNA3/TRIP-Br2 and pBlueScript/GAL4-KRIP-1 using the TNT T7 coupled reticulocyte lysate system (Promega). The in vitro translation reactions were carried out in a total reaction volume of 50 μl by incubating 1.0 μg of the indicated DNA template in nuclease-free water with 30 μl of TNT Quick master mix in the presence of [^35S]-methionine (Met) at 30° C. for 90 minutes.
Immunoprecipitation assay (IP). The binding reactions for IP were performed by incubating 1.5 μl [^35S]-Met labeled GAL4 or GAL4-KRIP-1 IVT products with 3 μl [^35S]-Met labeled TRIP-Br1 or TRIP-Br2 IVT products in 1×IP buffer (Hsu, S. I. H., et al. EMBO J. 20, 2273-2285 (2001)) at 4° C. for 1 h. For the analysis of decoy peptide-mediated blocking activity, the GAL4-KRIP-1 IVT product was pre-incubated with 25 μM decoy peptides at 4° C. for 30 minutes prior to addition of full-length TRIP-Br1 or TRIP-Br2 IVT products. Protein complexes precipitated using agarose-conjugated anti-GAL4 antibody were resolved by SDS-PAGE and then processed for autoradiography.
FIG. 1: TRIP-Br decoy peptides antagonize KRIP-1/TRIP-Br PHD-bromodomain interactions. […] GAL4-KRIP-1 was specifically immunoprecipitated by the agarose-conjugated anti-GAL4 antibody (Lanes 3-5 & 7–10) but not by the non-specific control anti-cyclin E antibody (Lane 6); (B) Antagonism of PHD-bromodomain interactions in vivo. U2OS cells were transiently transfected with 0.4 μg of the indicated GAL4 expression constructs and 1.2 μg of pMT3A/KRIP-1, along with 0.4 μg of the minimal luciferase reporter pG5-GL3 and 0.1 μg of the control reporter pCMV/β-gal. The transfected cells were exposed to either vehicle (0.5% DMSO) or 50 μM of the indicated decoy peptides prior to harvesting for sequential assay of luciferase and galactosidase activity. Fold activation refers to luciferase activity normalized to β-galactosidase activity, and is expressed relative to the activity observed with transfection of the reporter alone. […]

## ERQIKIWFQNRRMKWKKGLDEDGLLLFCEGDTIAD (Peptide containing penetratin sequence from Drosophila and random peptide sequence) [*SCR, reference compound]
[1]
  caspase-3 protease activity in cell lysates: indistinguishable from the baseline activity
[2]
  total cell number over time: nearly identical increments in cell number over time
[3]
  GAL4-KRIP-1/TRIP-Br complex formation (co-IP of TRIP-Br1 or TRIP-Br2): did not affect GAL4-KRIP-1/TRIP-Br complex formation

## ERQIKIWFQNRRMKWKKATGCLLDDGLEGLFEDID (ERQIKIWFQNRRMKWKKATGCLLDDGLEGLFEDID-NH2) [*Br1]
[1]
  caspase-3 protease activity in cell lysates: indistinguishable from the baseline activity
[2]
  total cell number over time: nearly complete cessation of cell proliferation
  viable cells, trypan blue manual count: significantly fewer viable cells
[3]
  GAL4-KRIP-1/TRIP-Br complex formation (co-IP of TRIP-Br1 or TRIP-Br2): dramatically reduced the ability of GAL4-KRIP-1 to co-IP TRIP-Br1 or TRIP-Br2

## ERQIKIWFQNRRMKWKKTGFLTDLTLDDILFADID (ERQIKIWFQNRRMKWKKTGFLTDLTLDDILFADID-NH2) [*Br2]
[1]
  caspase-3 protease activity in cell lysates: indistinguishable from the baseline activity
[2]
  total cell number over time: nearly complete cessation of cell proliferation
  viable cells, trypan blue manual count: significantly fewer viable cells
[3]
  GAL4-KRIP-1/TRIP-Br complex formation (co-IP of TRIP-Br1 or TRIP-Br2): dramatically reduced the ability of GAL4-KRIP-1 to co-IP TRIP-Br1 or TRIP-Br2
